Results taken from patent publication US20250206718A1, “NITROGEN-CONTAINING HETEROCYCLIC DERIVATIVE INHIBITOR, PREPARATION METHOD THEREFOR AND USE THEREOF” (SHANGHAI HANSOH BIOMEDICAL CO., LTD., priority 2022, published 2025).

What was measured:
[1] = molecular target: Ba/F3 EGFR Del19/C797S cells (Homo sapiens, UniProt P00533, C797S, cells depend on it, form not given); assay: Cell proliferation inhibition (Cell Titer-Glo), Ba/F3 EGFR Del19/C797S; assay type: cell-based, mouse; settings: 72 hours, CellTiter-Glo, read-out: Ba/F3 EGFR Del19/C797S IC50
Sequence of Ba/F3 EGFR Del19/C797S cells (P00533 with tags, fused parts or gaps DEL746-750/C797S, form open): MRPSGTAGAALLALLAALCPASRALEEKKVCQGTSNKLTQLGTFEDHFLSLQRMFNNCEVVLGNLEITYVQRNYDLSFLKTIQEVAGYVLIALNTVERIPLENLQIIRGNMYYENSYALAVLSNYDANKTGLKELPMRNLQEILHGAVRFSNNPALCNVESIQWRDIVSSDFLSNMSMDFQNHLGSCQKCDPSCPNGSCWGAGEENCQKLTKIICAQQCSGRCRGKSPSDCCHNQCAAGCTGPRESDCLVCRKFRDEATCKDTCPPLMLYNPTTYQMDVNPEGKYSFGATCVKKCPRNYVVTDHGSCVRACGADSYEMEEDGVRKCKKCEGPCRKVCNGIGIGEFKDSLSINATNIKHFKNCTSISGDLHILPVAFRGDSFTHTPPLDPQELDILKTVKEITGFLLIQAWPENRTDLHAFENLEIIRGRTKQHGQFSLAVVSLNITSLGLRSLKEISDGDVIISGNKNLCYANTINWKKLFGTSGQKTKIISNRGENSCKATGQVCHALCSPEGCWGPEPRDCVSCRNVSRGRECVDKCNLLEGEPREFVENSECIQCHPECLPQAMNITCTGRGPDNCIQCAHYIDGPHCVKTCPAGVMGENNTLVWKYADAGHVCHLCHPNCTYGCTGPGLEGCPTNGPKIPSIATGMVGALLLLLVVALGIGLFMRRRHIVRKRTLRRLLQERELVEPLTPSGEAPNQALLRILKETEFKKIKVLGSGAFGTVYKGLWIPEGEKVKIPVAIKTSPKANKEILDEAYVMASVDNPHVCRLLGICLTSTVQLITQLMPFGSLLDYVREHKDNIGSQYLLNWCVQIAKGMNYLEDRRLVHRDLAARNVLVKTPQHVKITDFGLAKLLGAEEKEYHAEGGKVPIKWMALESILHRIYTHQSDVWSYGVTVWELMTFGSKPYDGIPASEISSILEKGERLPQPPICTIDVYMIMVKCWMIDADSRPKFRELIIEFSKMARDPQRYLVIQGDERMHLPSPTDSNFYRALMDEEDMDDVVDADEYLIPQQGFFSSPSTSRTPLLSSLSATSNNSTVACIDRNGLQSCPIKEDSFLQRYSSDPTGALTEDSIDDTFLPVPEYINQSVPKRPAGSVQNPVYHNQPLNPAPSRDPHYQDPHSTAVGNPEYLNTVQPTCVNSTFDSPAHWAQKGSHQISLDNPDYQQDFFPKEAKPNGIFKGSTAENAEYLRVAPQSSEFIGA
From the text: (§1) Experimental objective: The objective of this test example is to test the inhibitory activity of compounds on the proliferation of different EGFR C797S drug-resistant mutant cell lines Ba/F3 EGFR Del19/T790M/C797S, Ba/F3 EGFR L858R/T790M/C797S, and Ba/F3 EGFR Del19/C797S.
(§2) • Ba/F3 EGFR Del19/T790M/C797S cells were purchased from KYinno Biotechnology Co., Ltd.; • Ba/F3 EGFR Del19/C797S cells were purchased from CoBioer Biosciences Co., Ltd.; • Ba/F3 EGFR L858R/T790M/C797S cells were purchased from CoBioer Biosciences Co., Ltd.; • Cell Titer-Glo was purchased from Promega, with a catalog number of G7573; • RPMI 1640 was purchased from Gibco, with a catalog number of 22400089; • FBS was purchased from Gibco, with a catalog number of 10091148; • cell culture plates were purchased from Corning, with a catalog number of 3610.
(§3) The inhibitory activity of the compound on the proliferation of different EGFR C797S drug-resistant mutant cell lines was detected using the Cell Titer-Glo method. The different cell lines were cultured in RPMI 1640 complete culture medium containing 10% FBS under conditions of 37° C. and 5% CO2, the cells were collected by centrifugation when growing to a certain density, and adjusted to appropriate cell density after counting, the cells were spread on a white 96-well plate at 90 μL/well, and cultured in a 37° C., 5% CO2 incubator overnight, prepared compound solutions of different concentrations were added at 10 μL/well, corresponding solvent controls were set, and all wells were cultured in a 37° C., 5% CO2 incubator for 72 hours, 50 μL of CellTiter-Glo solution was added to each well, shook and mixed evenly, and incubated in the dark for 10 minutes, and a BioTek Synergy H1 microplate reader was used for reading.
(§4) The luminescence signal value was used to calculate the inhibition rate. Graphpad Prism software was used to fit the concentration and inhibition rate to a nonlinear regression curve, so as to obtain the IC50 value, as shown in the Table below for details.

[2] = molecular target: Ba/F3 EGFR Del19/T790M/C797S cells (Homo sapiens, UniProt P00533, T790M/C797S, cells depend on it, form not given); assay: Cell proliferation inhibition (Cell Titer-Glo), Ba/F3 EGFR Del19/T790M/C797S; assay type: cell-based, mouse; settings: 72 hours, CellTiter-Glo, read-out: Ba/F3 EGFR Del19_T790M_C797S IC50
Sequence of Ba/F3 EGFR Del19/T790M/C797S cells (P00533 with tags, fused parts or gaps DEL746-750/T790M/C797S, form open): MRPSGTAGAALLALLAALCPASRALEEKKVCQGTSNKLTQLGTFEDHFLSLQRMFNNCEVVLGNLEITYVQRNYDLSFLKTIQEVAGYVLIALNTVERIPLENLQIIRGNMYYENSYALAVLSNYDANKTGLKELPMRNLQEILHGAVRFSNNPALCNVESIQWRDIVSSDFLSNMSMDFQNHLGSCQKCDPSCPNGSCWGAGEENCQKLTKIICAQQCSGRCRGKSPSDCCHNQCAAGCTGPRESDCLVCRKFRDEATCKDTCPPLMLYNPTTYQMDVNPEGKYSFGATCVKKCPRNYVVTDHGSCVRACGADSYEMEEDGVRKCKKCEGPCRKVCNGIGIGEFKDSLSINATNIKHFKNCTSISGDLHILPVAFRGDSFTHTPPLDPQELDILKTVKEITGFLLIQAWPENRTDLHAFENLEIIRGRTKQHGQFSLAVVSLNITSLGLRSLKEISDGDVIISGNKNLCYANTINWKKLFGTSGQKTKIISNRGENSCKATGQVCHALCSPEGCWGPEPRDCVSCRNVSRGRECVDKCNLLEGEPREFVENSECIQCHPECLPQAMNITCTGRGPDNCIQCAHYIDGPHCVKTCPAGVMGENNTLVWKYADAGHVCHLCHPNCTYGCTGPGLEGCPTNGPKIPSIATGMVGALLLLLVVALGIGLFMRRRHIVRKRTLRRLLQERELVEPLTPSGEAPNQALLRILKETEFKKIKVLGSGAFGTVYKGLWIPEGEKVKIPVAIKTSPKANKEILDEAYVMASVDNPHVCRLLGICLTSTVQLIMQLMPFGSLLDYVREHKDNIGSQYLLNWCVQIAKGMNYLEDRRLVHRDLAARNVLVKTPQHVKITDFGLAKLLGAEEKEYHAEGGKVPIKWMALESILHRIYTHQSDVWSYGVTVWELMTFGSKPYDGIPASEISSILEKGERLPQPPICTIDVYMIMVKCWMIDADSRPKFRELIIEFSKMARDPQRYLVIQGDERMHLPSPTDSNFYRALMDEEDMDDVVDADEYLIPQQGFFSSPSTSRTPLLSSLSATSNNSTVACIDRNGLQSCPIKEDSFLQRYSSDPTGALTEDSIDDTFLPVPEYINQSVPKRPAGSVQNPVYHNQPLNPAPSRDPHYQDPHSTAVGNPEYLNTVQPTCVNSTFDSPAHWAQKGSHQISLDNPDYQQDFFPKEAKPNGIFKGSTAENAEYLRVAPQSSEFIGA
From the text: as §1, §2, §3, §4

GI50 [1] [nM] | GI50 [2] [nM] | SMILES
8.4 | 10 | CC(C)c1ccc(N2CC(NS(C)(=O)=O)C2)c2cnc(Nc3ccnc(-c4cn(C)nc4Cl)n3)cc12 [Example 44, N-(1-(3-((2-(3-chloro-1-methyl-1H-pyrazol-4-yl)pyrimidin-4-yl)amino)-5-isopropylisoquinolin-8-yl)azetidin-3-yl)methanesulfonamide]
33 | 7.6 | COC(C)Cn1cc(-c2nccc(Nc3cc4c(C(C)C)ccc(N5C[C@H](CS(C)(=O)=O)[C@H]5C)c4cn3)n2)c(Cl)n1 (stereo partly drawn) [Example 116A, N-(2-(3-chloro-1-(2-methoxypropyl)-1H-pyrazol-4-yl)pyrimidin-4-yl)-5-isopropyl-8-((2R,3S)-2-methyl-3-((methanesulfonyl)methyl)azetidin-1-yl)isoquinolin-3-amine]
18 | 6.8 | Cc1nn(C)cc1-c1nccc(Nc2cc3c(C(C)C)c(F)cc(N4C[C@H](CS(C)(=O)=O)[C@H]4C)c3cn2)n1 [Example 125, N-(2-(1,3-dimethyl-1H-pyrazol-4-yl)pyrimidin-4-yl)-6-fluoro-5-isopropyl-8-((2R,3S)-2-methyl-3-((methanesulfonyl)methyl)azetidin-1-yl)isoquinolin-3-amine]
7.8 | 4.5 | Cc1nn(C)cc1-c1nccc(Nc2cc3c(C(C)C)c(F)cc(N4C[C@H](N(C)S(C)(=O)=O)[C@H]4C)c3cn2)n1 [Example 127, N-((2R,3S)-1-(3-((2-(1,3-dimethyl-1H-pyrazol-4-yl)pyrimidin-4-yl)amino)-6-fluoro-5-isopropylisoquinolin-8-yl)-2-methylazetidin-3-yl)-N-methyl methanesulfonamide]
5.9 | 8.1 | CC(C)c1cnc(N2CC(N(C)S(C)(=O)=O)C2)c2cnc(Nc3ccnc(-c4cn(C)nc4Cl)n3)cc12 [Example 130, N-(1-(6-((2-(3-chloro-1-methyl-1H-pyrazol-4-yl)pyrimidin-4-yl)amino)-4-isopropyl-2,7-diazanaphthalen-1-yl)azetidin-3-yl)-N-methyl methanesulfonamide]
33 | 5 | CC(C)c1ccc(N2C[C@H](CS(C)(=O)=O)[C@H]2C)c2cnc(Nc3ccnc(-c4cn(CC(O)CF)nc4Cl)n3)cc12 (stereo partly drawn) [Example 172, 1-(3-chloro-4-(4-((5-isopropyl-8-((2R,3S)-2-methyl-3-((methanesulfonyl)methyl)azetidin-1-yl)isoquinolin-3-yl)amino)pyrimidin-2-yl)-1H-pyrazol-1-yl)-3-fluoropropan-2-ol]
